Measured values: patent publication US20030180345A1, “Compositions and methods for inhibiting islet dysfunction and autoimmune disorders” (priority 2000, published 2003)

Legend:
Fas ligand = test: Islet Fas ligand immunoreactivity with dietary taurine supplementation; format: in vivo, Wistar rats; conditions: post-natal day 14
Description: Animals and diets were prepared as described in Example 8. The pancreas was removed, and the presence of Fas, Fas ligand, inducible nitric oxide synthase (iNOS) and vascular endothelial growth factor (VEGF) were evaluated in pancreatic sections using immunoreactivity.

[1] = taurine 0.3 mmol/l or 3 mmol/l; acellular
Description: Nitric oxide is a reactive free radical which leads to peroxynitrite formation, another reactive free radical, by interaction with superoxide (NO+OO^−→ONOO^−). […] Luminol-derived chemiluminescence induced by peroxynitrite produced by the decomposition of sydnonimine (SIN-1) was evaluated to investigate the possibility that taurine quenched the peroxynitrite formed from NO.

Structure (SMILES): NCCS(=O)(=O)O [taurine, 2-aminoethylsulfonic acid]
- Fas ligand presence in islets (Fas ligand): reduced
- concentration of NO released in the presence of SNP [1]: not significantly altered
